Data from PMC8746970, “Determination of the Peptide AWRK6 in Rat Plasma by Liquid Chromatography-Tandem Mass Spectrometry (LC-MS/MS) and Its Application to Pharmacokinetics” (Molecules, 2021).
No end group written: not given here.

Test: Stability of AWRK6 QC samples in rat plasma under storage conditions
Type: in vitro ADME
Conditions: for measured concentration of QC sample after storage / relative error of QC sample after storage: rat plasma QC, LC-MS/MS, n = 3; for measured concentration of QC sample after storage: mean ± SD
Procedure: The AWRK6 and IS were dissolved in water at 1.0 mg/mL for stock solution. The AWRK6 calibration standards at 0.05, 0.1, 0.5, 1, 2, 5, and 10 μg/mL were prepared by mixing 50 μL of working solution and 100 μL of blank plasma individually. QC samples of AWRK6 at 0.1, 0.5, and 5 μg/mL were prepared by the same method. The thawed plasma samples (100 μL) were mixed with 50 μL water (or QC), 50 μL IS (1 μg/mL), and 20 μL FA-water (25:75, v/v). A combination of plasma precipitation and liquid–liquid extraction was applied for the extraction of AWRK6 in samples. After adding 200 μL methanol and 100 μL dichloromethane, the mixtures were vortexed for 30 s and centrifuged at 14,000 g for 10 min. The supernatant was filtered by 0.22 μm membrane for LC-MS/MS analysis.
The method was validated for specificity, linearity, LOD, LOQ, LLOQ, precision, accuracy, recovery, matrix effect, and stability according to U.S. FDA guidelines. Specificity was determined using blank plasma samples from 6 rats. Linearity was accessed using calibration standards in triplicate within 3 consecutive days. LOD and LOQ were estimated as concentrations of AWRK6 which generated S/N value of 3 or 10, and they were verified by continuous evaluating the S/N value of 3 LOD samples or 6 LOQ samples. LLOQ was determined using 6 calibration standard samples at 0.05 μg/mL. Precision and accuracy were accessed using QC samples and repeated 6 times within 3 consecutive days. Recovery was calculated by comparing the respective peak areas of the QC samples with the blank plasma samples spiked after extraction (repeated 6 times). Matrix effect was evaluated by comparing the respective peak areas of the QC samples with standard solutions (AWRK6 and IS in water, respectively) at the same concentrations (repeated 6 times). Stability was analyzed using QC samples under different storage conditions including room temperature for 6 h, 3 freeze–thaw cycles, 4 °C for 12 h, and−20 °C for 7 days.

[1] = nominal 0.100 μg/mL, room temperature for 6 h
[2] = nominal 0.100 μg/mL, storage at 4 °C for 12 h
[3] = nominal 0.100 μg/mL, storage at −20 °C for 7 days
[4] = nominal 0.100 μg/mL, three freeze–thaw cycles
[5] = nominal 0.500 μg/mL, room temperature for 6 h
[6] = nominal 0.500 μg/mL, storage at 4 °C for 12 h
[7] = nominal 0.500 μg/mL, storage at −20 °C for 7 days
[8] = nominal 0.500 μg/mL, three freeze–thaw cycles
[9] = nominal 5.000 μg/mL, storage at 4 °C for 12 h
[10] = nominal 5.000 μg/mL, storage at −20 °C for 7 days
[11] = nominal 5.000 μg/mL, three freeze–thaw cycles

SWVGKHGKKFGLKKHKKH-NH2 (C-terminus assumed) [AWRK6]
relative error of QC samples (stability acceptable) (rat plasma QC 0.1, 0.5, 5 μg/mL, room temperature for 6 h, 3 freeze–thaw cycles, and 4 °C for 12 h): < 12%
relative error of QC samples (significant degradation) (rat plasma QC 0.1, 0.5, 5 μg/mL, storage at −20 °C for 7 days): −16.94 to −34.74%
measured concentration of QC sample after storage [1]: 0.089 ± 0.007 µg/mL
relative error of QC sample after storage [1]: −6.315%
measured concentration of QC sample after storage [2]: 0.084 ± 0.013 µg/mL
relative error of QC sample after storage [2]: −11.579%
measured concentration of QC sample after storage [3]: 0.062 ± 0.018 µg/mL
relative error of QC sample after storage [3]: −34.737%
measured concentration of QC sample after storage [4]: 0.091 ± 0.008 µg/mL
relative error of QC sample after storage [4]: −4.210%
measured concentration of QC sample after storage [5]: 0.462 ± 0.021 µg/mL
relative error of QC sample after storage [5]: −4.742%
measured concentration of QC sample after storage [6]: 0.442 ± 0.015 µg/mL
relative error of QC sample after storage [6]: −8.866%
measured concentration of QC sample after storage [7]: 0.387 ± 0.047 µg/mL
relative error of QC sample after storage [7]: −20.206%
measured concentration of QC sample after storage [8]: 0.477 ± 0.016 µg/mL
relative error of QC sample after storage [8]: −1.649%
measured concentration of QC sample after storage [9]: 4.881 ± 0.301 µg/mL
relative error of QC sample after storage [9]: −1.040%
measured concentration of QC sample after storage [10]: 4.153 ± 0.442 µg/mL
relative error of QC sample after storage [10]: −16.940%
measured concentration of QC sample after storage [11]: 4.912 ± 0.049 µg/mL
relative error of QC sample after storage [11]: −0.409%
